Assays:
Test in all cases: biochemical
Design in all cases: KINOMEscan competition binding panel, per cent of control
Settings in all cases: read-out: %Ctrl @ 2800nM
HUNK = HUNK (Homo sapiens, UniProt P57058)
Method in brief: (§1)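 Values are expressed as percent of control, calculated as ((test − positive control)/(negative control − positive control)) × 100, so lower numbers mean stronger hits. Binding was measured by KINOMEscan competition assay in a 450-kinase human panel including disease mutants, using the contractor's validated protocol.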

TAOK2 = TAOK2 (Homo sapiens, UniProt Q9UL54)
Method in brief: as §1

SNARK = target: T1, SNARK (Homo sapiens, UniProt Q9H093)
T1 construct: gene NUAK2
Method in brief: as §1

DAPK3 = DAPK3 (Homo sapiens, UniProt O43293)
Method in brief: as §1

[1] = target: T2, ABL1(F317I)-nonphosphorylated (Homo sapiens, UniProt P00519, F317I)
T2 construct: nonphosphorylated
Method in brief: as §1

CDK11 = target: T3, CDK11 (Homo sapiens, UniProt Q9BWU1)
T3 construct: gene CDK19
Method in brief: as §1

PIK3CA(I800L) = PIK3CA(I800L) (Homo sapiens, UniProt P42336, I800L)
Method in brief: as §1

ACVR2B = ACVR2B (Homo sapiens, UniProt Q13705)
Method in brief: as §1

AURKA = AURKA (Homo sapiens, UniProt O14965)
Method in brief: as §1

MAPKAPK5 = MAPKAPK5 (Homo sapiens, UniProt Q8IW41)
Method in brief: as §1

[2] = target: T4, JAK1(JH2domain-pseudokinase) (Homo sapiens, UniProt P23458)
T4 construct: JH2domain-pseudokinase
T4 sequence (P23458 whole entry): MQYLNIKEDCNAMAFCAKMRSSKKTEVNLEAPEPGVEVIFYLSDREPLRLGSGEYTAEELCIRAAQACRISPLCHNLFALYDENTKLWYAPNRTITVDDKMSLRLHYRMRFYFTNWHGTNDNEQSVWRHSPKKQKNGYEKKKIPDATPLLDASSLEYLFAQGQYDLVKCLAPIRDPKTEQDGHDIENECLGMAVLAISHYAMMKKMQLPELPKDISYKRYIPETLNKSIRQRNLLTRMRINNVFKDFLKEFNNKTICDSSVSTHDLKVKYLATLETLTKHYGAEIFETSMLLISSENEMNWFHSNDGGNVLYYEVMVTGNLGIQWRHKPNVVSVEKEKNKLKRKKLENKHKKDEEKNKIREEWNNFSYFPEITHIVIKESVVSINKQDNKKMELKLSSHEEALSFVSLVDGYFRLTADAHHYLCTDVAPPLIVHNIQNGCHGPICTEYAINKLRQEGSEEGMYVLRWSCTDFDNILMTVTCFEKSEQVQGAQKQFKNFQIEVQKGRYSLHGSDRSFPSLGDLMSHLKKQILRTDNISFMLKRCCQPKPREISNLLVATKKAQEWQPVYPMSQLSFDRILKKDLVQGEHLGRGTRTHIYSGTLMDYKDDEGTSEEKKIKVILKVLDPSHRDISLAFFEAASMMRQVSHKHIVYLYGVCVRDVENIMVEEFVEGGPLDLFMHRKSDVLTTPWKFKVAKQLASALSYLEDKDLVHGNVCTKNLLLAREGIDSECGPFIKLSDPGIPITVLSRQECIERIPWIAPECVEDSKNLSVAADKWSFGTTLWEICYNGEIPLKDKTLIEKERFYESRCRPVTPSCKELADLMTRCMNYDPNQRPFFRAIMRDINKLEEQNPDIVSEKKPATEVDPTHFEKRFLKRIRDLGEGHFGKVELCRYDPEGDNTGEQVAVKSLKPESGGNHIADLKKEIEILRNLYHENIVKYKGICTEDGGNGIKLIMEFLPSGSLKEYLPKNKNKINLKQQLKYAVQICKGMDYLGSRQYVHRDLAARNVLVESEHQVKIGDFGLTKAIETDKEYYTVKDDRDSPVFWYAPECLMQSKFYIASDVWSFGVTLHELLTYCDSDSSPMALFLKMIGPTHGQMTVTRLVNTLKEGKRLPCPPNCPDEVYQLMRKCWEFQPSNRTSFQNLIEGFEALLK
Method in brief: as §1

EPHA5 = EPHA5 (Homo sapiens, UniProt P54756)
Method in brief: as §1

TNK1 = TNK1 (Homo sapiens, UniProt Q13470)
TNK1, sequence (Q13470 whole entry): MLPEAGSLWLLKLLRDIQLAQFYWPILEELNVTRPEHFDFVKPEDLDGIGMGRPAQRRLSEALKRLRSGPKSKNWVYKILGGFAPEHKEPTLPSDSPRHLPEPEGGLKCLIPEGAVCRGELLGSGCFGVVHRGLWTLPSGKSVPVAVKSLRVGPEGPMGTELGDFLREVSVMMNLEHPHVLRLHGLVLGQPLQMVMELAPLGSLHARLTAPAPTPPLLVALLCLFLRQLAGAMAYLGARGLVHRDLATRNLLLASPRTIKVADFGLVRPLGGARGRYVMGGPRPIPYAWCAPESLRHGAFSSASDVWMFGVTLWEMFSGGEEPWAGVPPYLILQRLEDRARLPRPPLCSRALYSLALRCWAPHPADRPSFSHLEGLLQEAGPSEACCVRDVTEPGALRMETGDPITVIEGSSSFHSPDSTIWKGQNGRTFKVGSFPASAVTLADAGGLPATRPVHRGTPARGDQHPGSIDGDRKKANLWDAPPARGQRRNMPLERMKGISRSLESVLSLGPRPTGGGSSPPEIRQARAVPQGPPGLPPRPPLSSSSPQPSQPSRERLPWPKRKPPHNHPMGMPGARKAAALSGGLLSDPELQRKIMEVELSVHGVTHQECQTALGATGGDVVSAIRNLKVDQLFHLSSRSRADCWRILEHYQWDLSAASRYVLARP
Method in brief: as §1

[3] = target: T5, RSK2(Kin.Dom.1-N-terminal) (Homo sapiens, UniProt P51812)
T5 construct: gene RPS6KA3; Kin.Dom.1-N-terminal
Method in brief: as §1

KIT(L576P) = KIT(L576P) (Homo sapiens, UniProt P10721, L576P)
Method in brief: as §1

PHKG2 = PHKG2 (Homo sapiens, UniProt P15735)
PHKG2, sequence (P15735 whole entry): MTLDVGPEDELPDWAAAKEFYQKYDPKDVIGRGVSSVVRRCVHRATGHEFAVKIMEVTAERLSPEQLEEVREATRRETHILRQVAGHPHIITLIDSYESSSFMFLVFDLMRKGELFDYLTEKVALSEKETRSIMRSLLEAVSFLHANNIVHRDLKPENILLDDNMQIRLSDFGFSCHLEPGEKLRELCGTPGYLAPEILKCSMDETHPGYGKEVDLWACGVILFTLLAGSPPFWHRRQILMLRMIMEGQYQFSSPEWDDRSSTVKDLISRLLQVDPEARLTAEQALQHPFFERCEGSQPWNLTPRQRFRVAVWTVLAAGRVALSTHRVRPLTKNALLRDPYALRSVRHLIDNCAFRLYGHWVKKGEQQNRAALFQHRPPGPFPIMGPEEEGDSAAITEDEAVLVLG
Method in brief: as §1

PAK4 = PAK4 (Homo sapiens, UniProt O96013)
PAK4, sequence (O96013 whole entry): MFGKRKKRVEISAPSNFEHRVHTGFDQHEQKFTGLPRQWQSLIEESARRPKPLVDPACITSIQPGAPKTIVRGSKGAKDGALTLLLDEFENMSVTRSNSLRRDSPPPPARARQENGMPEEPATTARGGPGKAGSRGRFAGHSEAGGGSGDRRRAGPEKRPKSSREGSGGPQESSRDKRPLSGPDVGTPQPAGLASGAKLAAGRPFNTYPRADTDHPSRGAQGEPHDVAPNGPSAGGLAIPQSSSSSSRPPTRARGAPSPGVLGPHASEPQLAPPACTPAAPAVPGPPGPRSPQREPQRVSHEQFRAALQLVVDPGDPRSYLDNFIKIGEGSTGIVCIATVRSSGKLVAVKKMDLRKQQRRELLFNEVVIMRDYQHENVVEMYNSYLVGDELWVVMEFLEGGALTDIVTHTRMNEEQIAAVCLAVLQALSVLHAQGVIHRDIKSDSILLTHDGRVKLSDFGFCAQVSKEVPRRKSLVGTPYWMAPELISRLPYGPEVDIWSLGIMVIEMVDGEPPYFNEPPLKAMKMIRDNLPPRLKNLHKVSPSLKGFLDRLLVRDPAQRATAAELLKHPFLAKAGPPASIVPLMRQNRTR
Method in brief: as §1

HPK1 = target: T6, HPK1 (Homo sapiens, UniProt Q92918)
T6 construct: gene MAP4K1
Method in brief: as §1

PIK3CA(C420R) = PIK3CA(C420R) (Homo sapiens, UniProt P42336, C420R)
Method in brief: as §1

PLK2 = PLK2 (Homo sapiens, UniProt Q9NYY3)
Method in brief: as §1

[4] = target: T7, ABL1(T315I)-nonphosphorylated (Homo sapiens, UniProt P00519, T315I)
T7 construct: nonphosphorylated
Method in brief: as §1

KIT(V559D,T670I) = KIT(V559D,T670I) (Homo sapiens, UniProt P10721, T670I/V559D)
Method in brief: as §1

SRMS = SRMS (Homo sapiens, UniProt Q9H3Y6)
Method in brief: as §1

FGFR4 = FGFR4 (Homo sapiens, UniProt P22455)
FGFR4, sequence (P22455 whole entry): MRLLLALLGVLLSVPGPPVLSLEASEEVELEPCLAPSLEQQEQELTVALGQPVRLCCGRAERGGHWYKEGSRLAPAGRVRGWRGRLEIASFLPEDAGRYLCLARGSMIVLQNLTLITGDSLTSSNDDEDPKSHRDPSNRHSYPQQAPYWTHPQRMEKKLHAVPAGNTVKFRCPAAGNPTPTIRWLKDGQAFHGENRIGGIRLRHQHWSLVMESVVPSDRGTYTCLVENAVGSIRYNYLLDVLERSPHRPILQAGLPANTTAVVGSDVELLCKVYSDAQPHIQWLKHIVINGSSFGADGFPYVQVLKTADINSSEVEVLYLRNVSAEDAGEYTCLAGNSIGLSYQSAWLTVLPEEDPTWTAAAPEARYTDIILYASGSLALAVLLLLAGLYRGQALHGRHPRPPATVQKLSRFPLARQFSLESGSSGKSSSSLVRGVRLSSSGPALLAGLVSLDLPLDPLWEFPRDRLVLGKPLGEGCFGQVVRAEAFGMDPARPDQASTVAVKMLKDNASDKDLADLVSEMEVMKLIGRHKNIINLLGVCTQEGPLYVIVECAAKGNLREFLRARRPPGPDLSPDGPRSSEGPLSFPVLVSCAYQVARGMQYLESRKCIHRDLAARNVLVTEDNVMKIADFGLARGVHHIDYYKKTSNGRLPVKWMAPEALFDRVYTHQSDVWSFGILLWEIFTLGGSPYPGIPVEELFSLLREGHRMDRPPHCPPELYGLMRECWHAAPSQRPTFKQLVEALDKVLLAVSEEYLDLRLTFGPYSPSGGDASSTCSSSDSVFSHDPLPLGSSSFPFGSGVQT
Method in brief: as §1

NEK1 = NEK1 (Homo sapiens, UniProt Q96PY6)
NEK1, sequence (Q96PY6 whole entry): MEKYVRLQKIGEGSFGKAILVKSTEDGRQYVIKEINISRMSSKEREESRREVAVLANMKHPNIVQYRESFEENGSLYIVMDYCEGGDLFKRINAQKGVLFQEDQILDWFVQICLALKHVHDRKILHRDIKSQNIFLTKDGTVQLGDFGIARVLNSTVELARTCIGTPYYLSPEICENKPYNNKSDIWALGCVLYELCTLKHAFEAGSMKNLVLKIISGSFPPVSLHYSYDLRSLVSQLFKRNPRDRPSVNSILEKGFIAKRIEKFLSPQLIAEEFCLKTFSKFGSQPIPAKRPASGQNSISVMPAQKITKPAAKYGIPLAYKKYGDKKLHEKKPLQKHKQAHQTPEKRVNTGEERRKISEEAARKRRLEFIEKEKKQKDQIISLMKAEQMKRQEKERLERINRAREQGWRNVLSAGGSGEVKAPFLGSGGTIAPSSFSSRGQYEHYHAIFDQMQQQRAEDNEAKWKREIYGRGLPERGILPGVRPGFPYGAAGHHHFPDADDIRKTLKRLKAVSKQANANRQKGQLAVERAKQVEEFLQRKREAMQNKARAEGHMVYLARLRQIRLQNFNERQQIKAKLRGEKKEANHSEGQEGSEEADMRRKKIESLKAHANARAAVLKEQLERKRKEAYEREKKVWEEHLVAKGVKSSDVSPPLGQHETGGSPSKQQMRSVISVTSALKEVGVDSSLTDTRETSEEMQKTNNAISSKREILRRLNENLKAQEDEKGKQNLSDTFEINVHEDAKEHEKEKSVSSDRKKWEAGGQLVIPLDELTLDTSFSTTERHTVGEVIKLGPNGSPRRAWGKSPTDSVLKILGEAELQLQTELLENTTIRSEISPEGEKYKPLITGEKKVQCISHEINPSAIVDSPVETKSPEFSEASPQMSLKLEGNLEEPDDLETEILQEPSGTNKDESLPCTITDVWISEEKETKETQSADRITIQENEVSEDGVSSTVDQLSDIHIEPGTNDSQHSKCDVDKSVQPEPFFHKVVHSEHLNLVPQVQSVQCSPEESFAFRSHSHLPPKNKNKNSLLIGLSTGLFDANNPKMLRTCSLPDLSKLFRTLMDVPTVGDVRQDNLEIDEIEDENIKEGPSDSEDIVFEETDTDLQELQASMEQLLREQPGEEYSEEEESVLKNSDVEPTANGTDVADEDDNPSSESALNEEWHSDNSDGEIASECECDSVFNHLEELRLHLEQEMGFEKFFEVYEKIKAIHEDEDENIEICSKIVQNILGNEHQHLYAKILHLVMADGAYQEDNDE
Method in brief: as §1

CAMK1 = CAMK1 (Homo sapiens, UniProt Q14012)
Method in brief: as §1

Compound [O-][S@@+](Cc1cncs1)C(c1ccccc1)c1ccccc1 [S-CE-123, (S)-5-((Benzhydrylsulfinyl)Methyl)Thiazole] has a remaining binding at 2.8 µM (HUNK) of 100%, a remaining binding at 2.8 µM (TAOK2) of 100% and a remaining binding at 2.8 µM (SNARK) of 100%. For the same compound, the remaining binding at 2.8 µM (DAPK3) was 96%, the remaining binding at 2.8 µM [1] was 100% and the remaining binding at 2.8 µM (CDK11) was 71%. For the same compound, the remaining binding at 2.8 µM (PIK3CA(I800L)) was 84%, the remaining binding at 2.8 µM (ACVR2B) was 100% and the remaining binding at 2.8 µM (AURKA) was 91%. It also gave a remaining binding at 2.8 µM (MAPKAPK5) of 100%, a remaining binding at 2.8 µM [2] of 92% and a remaining binding at 2.8 µM (EPHA5) of 86%. It also gave a remaining binding at 2.8 µM (TNK1) of 74%, a remaining binding at 2.8 µM [3] of 100% and a remaining binding at 2.8 µM (KIT(L576P)) of 99%. For the same compound, the remaining binding at 2.8 µM (PHKG2) was 96%, the remaining binding at 2.8 µM (PAK4) was 98% and the remaining binding at 2.8 µM (HPK1) was 89%. It also gave a remaining binding at 2.8 µM (PIK3CA(C420R)) of 92%, a remaining binding at 2.8 µM (PLK2) of 89% and a remaining binding at 2.8 µM [4] of 100%. It also gave a remaining binding at 2.8 µM (KIT(V559D,T670I)) of 83%, a remaining binding at 2.8 µM (SRMS) of 99% and a remaining binding at 2.8 µM (FGFR4) of 100%. The remaining binding at 2.8 µM (NEK1) was 90% and the remaining binding at 2.8 µM (CAMK1) was 97%.
